Reference: patent publication US6455510B1, “Chemical Compounds” (SmithKline Beecham Corporation, priority 1997, dated 2002)

Columns and labels:
[1] = biological target: T1, human adenosine A1 receptor (Homo sapiens, UniProt P30542); test: Reporter gene assay (CRE/SPAP) in CHO cells, agonist activity, adenosine A1; assay type: cell-based; conditions: CHO cells stably transfected with human adenosine A1 receptor; inhibition of forskolin-stimulated SPAP production; potency relative to NECA=1
T1 construct: expressed in transfected cells; host or cells: Chinese hamster ovary (CHO) cells containing CRE/SPAP/HYG reporter elements
T1 sequence (P30542 1-326): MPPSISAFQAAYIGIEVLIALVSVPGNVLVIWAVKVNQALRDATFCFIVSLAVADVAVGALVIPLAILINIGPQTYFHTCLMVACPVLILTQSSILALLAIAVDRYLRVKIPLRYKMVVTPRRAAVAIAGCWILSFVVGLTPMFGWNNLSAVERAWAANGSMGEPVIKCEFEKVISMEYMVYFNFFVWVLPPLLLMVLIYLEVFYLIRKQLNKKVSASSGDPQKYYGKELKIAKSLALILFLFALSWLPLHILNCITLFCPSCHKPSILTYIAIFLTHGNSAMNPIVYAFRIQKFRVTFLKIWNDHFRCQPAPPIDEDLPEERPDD
Method: (§1) Reporter Gene Experiments
Agonist activity was measured in Chinese hamster ovary (CHO) cells containing the CRE/SPAP/HYG (CRE=cyclic AMP response element; HYG=hygromycin resistance; SPAP=secreted placental alkaline phosphatase) reporter gene elements, which upon stimulation of cAMP levels produced SPAP. A cell line was used, which was stably transfected with either the human adenosine Al receptor or the human adenosine A3 receptor in addition to the above elements. Cells were plated out in 96-well plates in culture medium and incubated at 37° C. for 1 hour. […] 15 Min later, cAMP levels were stimulated by addition of a maximal concentration of forskolin. All cells were then incubated for a further 5 hours at 37° C., and cooled to room temperature, after which a substrate for the phosphatase (para-nitrophenol phosphate, pNPP), which is converted by SPAP to a coloured reagent) was then added and the 96-well plates were read in a plate reader. From these readings, the concentration-dependence of the inhibition by the agonist for forskolin-stimulated SPAP production can be calculated.
(§2) (ECR=equipotent concentration ratio relative to NECA=1)

[2] = biological target: T2, human adenosine A3 receptor (Homo sapiens, UniProt P0DMS8); test: Reporter gene assay (CRE/SPAP) in CHO cells, agonist activity, adenosine A3; assay type: cell-based; conditions: CHO cells stably transfected with human adenosine A3 receptor; inhibition of forskolin-stimulated SPAP production; potency relative to NECA=1
T2 construct: expressed in transfected cells; host or cells: Chinese hamster ovary (CHO) cells containing CRE/SPAP/HYG reporter elements
T2 sequence (P0DMS8 1-318): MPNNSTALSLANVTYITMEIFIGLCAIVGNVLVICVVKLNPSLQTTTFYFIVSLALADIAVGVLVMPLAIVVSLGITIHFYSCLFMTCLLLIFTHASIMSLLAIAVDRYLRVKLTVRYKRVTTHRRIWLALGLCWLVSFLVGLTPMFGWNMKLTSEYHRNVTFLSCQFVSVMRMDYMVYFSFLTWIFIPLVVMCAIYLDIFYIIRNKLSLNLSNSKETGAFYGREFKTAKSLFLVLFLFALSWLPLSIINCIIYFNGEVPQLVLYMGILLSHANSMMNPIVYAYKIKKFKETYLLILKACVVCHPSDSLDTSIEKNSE
Method: as §1
Agonist activity was measured in Chinese hamster ovary (CHO) cells containing the CRE/SPAP/HYG (CRE=cyclic AMP response element; HYG=hygromycin resistance; SPAP=secreted placental alkaline phosphatase) reporter gene elements, which upon stimulation of cAMP levels produced SPAP. A cell line was used, which was stably transfected with either the human adenosine Al receptor or the human adenosine A3 receptor in addition to the above elements. Cells were plated out in 96-well plates in culture medium and incubated at 37° C. for 1 hour. For measurement of potency, agonists were added to the appropriate wells at a concentration range of approximately 10^−10-10^−5M. 15 Min later, cAMP levels were stimulated by addition of a maximal concentration of forskolin. All cells were then incubated for a further 5 hours at 37° C., and cooled to room temperature, after which a substrate for the phosphatase (para-nitrophenol phosphate, pNPP), which is converted by SPAP to a coloured reagent) was then added and the 96-well plates were read in a plate reader. From these readings, the concentration-dependence of the inhibition by the agonist for forskolin-stimulated SPAP production can be calculated. One of the agonists tested on each 96-well plate was the standard non-selective agonist, N-ethylcarboxamidoadenosine (NECA), and the potency of all test agonists is expressed relative to that of the NECA standard.
as §2

A1 Receptor, Reporter Gene Assay ECR (equipotent concentration ratio relative to NECA=1) [1] | A3 Receptor, Reporter Gene Assay ECR (equipotent concentration ratio relative to NECA=1) [2] | Compound
0.71 | >353.00 | CNS(=O)(=O)CCNc1ncnc2c1ncn2[C@@H]1O[C@H](CF)[C@H](O)[C@H]1O [Example 18, 2-[9-(5S-Fluoromethyl-3R,4R-dihydroxy-tetrahydro-furan-2R-yl)-9H-purin-6-ylamino]-ethanesulfonic acid methylamide]
11.20 | 48.90 | CS(=O)(=O)N1CCC(Nc2nc(Cl)nc3c2ncn3[C@@H]2O[C@H](CF)[C@@H](O)[C@H]2O)CC1 [Example 23, 2-Chloro-5′-deoxy-5′-fluoro-N-(1-methanesulfonyl-piperidin-4-yl)-adenosine]
8.17 | >353.00 | CC(C)(C)Nc1ncnc2c1ncn2[C@@H]1O[C@H](CF)[C@@H](O)[C@H]1O [Example 20, N-tert-Butyl-5′-deoxy-5′-fluoro-adenosine]
3.51 | >353.00 | CC(C)(C)CNc1ncnc2c1ncn2[C@@H]1O[C@H](CF)[C@@H](O)[C@H]1O [Example 19, 5′-Deoxy-5′-fluoro-N-(2,2-dimethyl-propyl)-adenosine]

Compound | A1 Receptor, Reporter Gene Assay ECR (equipotent concentration ratio relative to NECA=1) [1] | A3 Receptor, Reporter Gene Assay ECR (equipotent concentration ratio relative to NECA=1) [2]
CCCCOC(=O)N1CCC(Nc2nc(Cl)nc3c2ncn3[C@@H]2O[C@H](CF)[C@@H](O)[C@H]2O)CC1 [Example 26, 4-[2-Chloro-9-(5S-fluoromethyl-3R,4S-dihydroxy-tetrahydro-furan-2R-yl)-9H-purin-6-ylamino]-piperidine-1-carboxylic acid butyl ester] | 4.50 | >233.00
CCOC(=O)N1CCC(Nc2ncnc3c2ncn3[C@@H]2O[C@H](CF)[C@@H](O)[C@H]2O)CC1 [Example 14, 4-[9-(5S-Fluoromethyl-3R,4S-dihydroxy-tetrahydro-furan-2R-yl)-9H-purin-6-ylamino]-piperidine-1-carboxylic acid ethyl ester] | 1.68 | >435.00
